Measured values: patent publication US20250275953A1, “VODOBATINIB FOR REDUCING PROGRESSION OF PARKINSON'S DISEASE” (Sun Pharma Advanced Research Company Ltd., priority 2022, published 2025)
Entries after “also recorded” stand apart in the source; their conditions may differ.

Assay: Safety and tolerability, healthy volunteers
Assay type: in vivo, human
Conditions: for number of treatment-related TEAEs: four subjects
Protocol: The subjects were further assessed for safety. Accordingly, hematology, chemistry, urinalysis testing and vital signs examination (seated systolic [SBP] and diastolic blood pressure [DBP], pulse, respiration rate, and temperature) were performed at screening, check-in and at the exit visit prior to discharge from the study. Seated vital signs were checked after 1 h, 4 h, and 12 h of the first dose on Day 1. 12-lead ECGs were recorded on Day 1 and Day 7 in triplicate 0.75 h, 0.5 h and 0.25 h prior to the dose and after 0.5 h, 1 h, 2 h, 3 h, 4 h, 8 h, 12 h, and 24 h of the dose with subjects in supine position. Lumbar catheter was placed on day 7 and the vital signs were checked after 1 h, 4 h, and 12 h of the dose. Vital signs were examined within 15 minutes prior to the collection of samples for PK studies.
All adverse event (AE)s were captured and documented throughout the study from the time of ICF signing to 7 days after the last dose of study medication or early termination.
The AEs were coded according to MedDRA® and grouped by Preferred Terms (PT) and System Organ Class (SOC). All AEs were classified and graded according to CTCAE Version 4.03 or later. Incidence (n) and percentage (%) was reported for coded TEAEs by cohort for the SAF Population. Subjects with more than one of the same PTs within an SOC were counted only once.
Categorical ECG analysis included the number and percentage of individuals with abnormal ECG findings and those with: absolute QTcF values >450 milliseconds, absolute QTcF values >480 milliseconds, absolute QTcF values >500 milliseconds, change from baseline >30 msec, and change from baseline >60 msec. No subject reported clinically significant abnormalities. […] No AEs related to ECG parameters were reported in any group during the study.
Forty-one healthy adult male volunteers aged 18 to 45 with body mass indexes (BMI)≥18 to ≤30 Kg/m^2 and total body weight >50 kg (110 lb) were screened in order to enroll 19 subjects with an average age of 34.2 years (range 21.5-45.6 years) into this study Six participants were randomly assigned to the 48 and 192 mg cohorts, and seven participants were assigned to the 384 mg cohort. After an overnight fast, participants received once daily doses of vodobatinib as capsules for 7 days. Serial PK blood samples to measure vodobatinib plasma concentrations were collected at pre-dose and at 0.25, 0.5, 1, 1.5, 2, 2.5, 3, 4, 6, 8, 12, 16 and 24 h post-dose after the first dose on Day 1 and the last dose on day 7. Additional PK samples prior to the morning doses were taken on Days 3-6. On the morning of Day 7, prior to dosing, an indwelling intrathecal catheter was inserted in the lumbar region (L3-L5). Serial CSF samples were collected through the catheter connected via peristaltic pump to a fraction collector. At each designated CSF collection time point, 8 mL of CSF was collected at a flow rate of 0.5 mL/min over a 16-min period at pre-dose, and 0.5, 1.0, 1.5, 2, 2.5, 3, 4, 6, 8, 12 and 24 h post-dose. The first 2 mL of CSF was discarded, and the remaining 6 mL was used for the vodobatinib assay. The occurrence of treatment-emergent adverse events (TEAEs) and serious AEs (SAEs) reported through the completion of study were collected. Clinical laboratory parameters, vital signs and physical examination data and electrocardiogram (ECG) were collected and evaluated relative to baseline values.

[1] = Total (N = 19), listed as vodobatinib
[2] = all cohorts, listed as vodobatinib

SMILES: Cc1ccc(C(=O)NNC(=O)c2c(C)cccc2Cl)cc1C#Cc1cnc2ccccc2c1 [N′-(2-chloro-6-methylbenzoyl)-4-methyl-3-[2-(3-quinolyl)ethynyl]-benzohydrazide]
- IMP Related TEAEs: Abdominal Distension, N (%) (48 mg (N = 6)): 0
- IMP Related TEAEs: Gastrointestinal Disorders, N (%) (48 mg (N = 6)): 0
- IMP Related TEAEs: General Disorders and Administration Site Conditions, N (%) (48 mg (N = 6)): 0
- IMP Related TEAEs: Headache, N (%) (48 mg (N = 6)): 1 (16.7)
- IMP Related TEAEs: Musculoskeletal and Connective Tissue Disorders, N (%) (48 mg (N = 6)): 0
- IMP Related TEAEs: Myalgia, N (%) (48 mg (N = 6)): 0
- IMP Related TEAEs: Nausea, N (%) (48 mg (N = 6)): 0
- IMP Related TEAEs: Nervous System Disorders, N (%) (48 mg (N = 6)): 1 (16.7)
- IMP Related TEAEs: Pain, N (%) (48 mg (N = 6)): 0
- IMP Related TEAEs: Subjects with at least one AE, N (%) (48 mg (N = 6)): 1 (16.7)
- IMP Related TEAEs: Subjects with more than one AE, N (%) (48 mg (N = 6)): 0
- Number of subjects with at least one TEAE (48 mg (N = 6)): 4
- Study Drug Related TEAEs, subjects (48 mg (N = 6)): 1
- Study Drug Withdrawn, subjects (48 mg (N = 6)): 0
- TEAEs Certainly, subjects (48 mg (N = 6)): 0
- TEAEs Mild, subjects (48 mg (N = 6)): 4
- TEAEs Moderate, subjects (48 mg (N = 6)): 1
- TEAEs None (row before Study Drug Withdrawn), subjects (48 mg (N = 6)): 4
- TEAEs Possibly, subjects (48 mg (N = 6)): 1
- TEAEs Probably, subjects (48 mg (N = 6)): 0
- TEAEs Unlikely, subjects (48 mg (N = 6)): 0
- TEAEs Unrelated, subjects (48 mg (N = 6)): 4
- number of TEAEs (48 mg (N = 6)): 9
- IMP Related TEAEs: Abdominal Distension, N (%) (192 mg (N = 6)): 0
- IMP Related TEAEs: Gastrointestinal Disorders, N (%) (192 mg (N = 6)): 1 (16.7)
- IMP Related TEAEs: General Disorders and Administration Site Conditions, N (%) (192 mg (N = 6)): 0
- IMP Related TEAEs: Headache, N (%) (192 mg (N = 6)): 1 (16.7)
- IMP Related TEAEs: Musculoskeletal and Connective Tissue Disorders, N (%) (192 mg (N = 6)): 1 (16.7)
- IMP Related TEAEs: Myalgia, N (%) (192 mg (N = 6)): 1 (16.7)
- IMP Related TEAEs: Nausea, N (%) (192 mg (N = 6)): 1 (16.7)
- IMP Related TEAEs: Nervous System Disorders, N (%) (192 mg (N = 6)): 1 (16.7)
- IMP Related TEAEs: Pain, N (%) (192 mg (N = 6)): 0
- IMP Related TEAEs: Subjects with at least one AE, N (%) (192 mg (N = 6)): 1 (16.7)
- IMP Related TEAEs: Subjects with more than one AE, N (%) (192 mg (N = 6)): 1 (16.7)
- Number of subjects with at least one TEAE (192 mg (N = 6)): 4
- Study Drug Related TEAEs, subjects (192 mg (N = 6)): 1
- Study Drug Withdrawn, subjects (192 mg (N = 6)): 0
- TEAEs Certainly, subjects (192 mg (N = 6)): 0
- TEAEs Mild, subjects (192 mg (N = 6)): 4
- TEAEs Moderate, subjects (192 mg (N = 6)): 2
- TEAEs None (row before Study Drug Withdrawn), subjects (192 mg (N = 6)): 4
- TEAEs Possibly, subjects (192 mg (N = 6)): 1
- TEAEs Probably, subjects (192 mg (N = 6)): 0
- TEAEs Unlikely, subjects (192 mg (N = 6)): 1
- TEAEs Unrelated, subjects (192 mg (N = 6)): 3
- number of TEAEs (192 mg (N = 6)): 10
- IMP Related TEAEs: Abdominal Distension, N (%) (384 mg (N = 7)): 1 (14.3)
- IMP Related TEAEs: Gastrointestinal Disorders, N (%) (384 mg (N = 7)): 1 (14.3)
- IMP Related TEAEs: General Disorders and Administration Site Conditions, N (%) (384 mg (N = 7)): 1 (14.3)
- IMP Related TEAEs: Headache, N (%) (384 mg (N = 7)): 1 (14.3)
- IMP Related TEAEs: Musculoskeletal and Connective Tissue Disorders, N (%) (384 mg (N = 7)): 0
- IMP Related TEAEs: Myalgia, N (%) (384 mg (N = 7)): 0
- IMP Related TEAEs: Nausea, N (%) (384 mg (N = 7)): 1 (14.3)
- IMP Related TEAEs: Nervous System Disorders, N (%) (384 mg (N = 7)): 1 (14.3)
- IMP Related TEAEs: Pain, N (%) (384 mg (N = 7)): 1 (14.3)
- IMP Related TEAEs: Subjects with at least one AE, N (%) (384 mg (N = 7)): 2 (28.6)
- IMP Related TEAEs: Subjects with more than one AE, N (%) (384 mg (N = 7)): 1 (14.3)
- Number of subjects with at least one TEAE (384 mg (N = 7)): 3
- Study Drug Related TEAEs, subjects (384 mg (N = 7)): 2
- Study Drug Withdrawn, subjects (384 mg (N = 7)): 0
- TEAEs Certainly, subjects (384 mg (N = 7)): 0
- TEAEs Mild, subjects (384 mg (N = 7)): 3
- TEAEs Moderate, subjects (384 mg (N = 7)): 1
- TEAEs None (row before Study Drug Withdrawn), subjects (384 mg (N = 7)): 3
- TEAEs Possibly, subjects (384 mg (N = 7)): 2
- TEAEs Probably, subjects (384 mg (N = 7)): 1
- TEAEs Unlikely, subjects (384 mg (N = 7)): 3
- TEAEs Unrelated, subjects (384 mg (N = 7)): 0
- number of TEAEs (384 mg (N = 7)): 9
- subjects with absolute QTcF >450 ms (48, 192, 384 mg): None of the subjects
- Study Drug Withdrawn, subjects (Total (N = 19)): 0
- TEAEs Certainly, subjects (Total (N = 19)): 0
- TEAEs Mild, subjects (Total (N = 19)): 11
- TEAEs Moderate, subjects (Total (N = 19)): 4
- TEAEs None (row before Study Drug Withdrawn), subjects (Total (N = 19)): 11
- TEAEs Possibly, subjects (Total (N = 19)): 4
- TEAEs Probably, subjects (Total (N = 19)): 1
- TEAEs Unlikely, subjects (Total (N = 19)): 4
- TEAEs Unrelated, subjects (Total (N = 19)): 7
- number of TEAEs (Total (N = 19)): 28
- Number of subjects with at least one TEAE [1]: Eleven
- Study Drug Related TEAEs, subjects [1]: Four
- SAEs (all cohorts): No subject experienced an SAE; also recorded: no SAEs
- TEAE abdominal distention (all cohorts): 10.5%
- TEAE back pain (all cohorts): 10.5%
- TEAE headache and nausea (all cohorts): 15.8%
- TEAE post lumbar puncture syndrome (all cohorts): 42.1%
- findings in clinical laboratory results, vital signs, ECGs, physical examinations (all cohorts): no clinically relevant or significant findings
- subjects with TEAEs unlikely related to study treatment (all cohorts): 21%
- subjects with TEAEs unrelated to study treatment (all cohorts): 37%
- subjects with mild TEAEs (all cohorts): 58%
- subjects with moderate TEAEs (all cohorts): 21%
- subjects reporting TEAEs (all cohorts (N = 19)): 58%
- number of treatment-related TEAEs (all cohorts): 7
- number of treatment-related TEAEs [2]: seven
- SAEs [2]: no SAEs
